This note sets out measurements from the Kinase Knowledgebase extract (Sharma et al. 2016).

A value given as a limit tells only on which side of the number the result lay.

The experiment has as its target MAPK14 (human) (UniProt Q16539). The experiment in a line: Inhibition of LPS Stimulated TNF Production by U937 Cells. To be noted: for inhibition: concentration not given here.

Sequence of MAPK14 (human) (Q16539 whole entry, looked up): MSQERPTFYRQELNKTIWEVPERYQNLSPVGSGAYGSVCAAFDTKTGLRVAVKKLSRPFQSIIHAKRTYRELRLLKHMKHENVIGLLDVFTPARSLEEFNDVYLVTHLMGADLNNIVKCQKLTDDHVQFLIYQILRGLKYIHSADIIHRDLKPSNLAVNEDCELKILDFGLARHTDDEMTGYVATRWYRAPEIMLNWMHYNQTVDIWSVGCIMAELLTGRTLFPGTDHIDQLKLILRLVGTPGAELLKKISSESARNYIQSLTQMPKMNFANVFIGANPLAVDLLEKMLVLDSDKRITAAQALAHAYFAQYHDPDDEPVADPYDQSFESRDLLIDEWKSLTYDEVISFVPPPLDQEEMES

`O=C(NCc1[nH]nc(-c2ccc(F)cc2)c1-c1ccncc1)c1ccc(Cl)c(Cl)c1` yielded an inhibition of 31%. The compound `Clc1ccc(-c2n[nH]cc2-c2ccncc2)cc1Cl` had an IC50 of 170 nM. In other words, the sub-micromolar range. In turn, `CNC(=O)N[C@@H](C)c1[nH]nc(-c2ccc(F)cc2)c1-c1ccncc1` gave an inhibition of 79%. For `C[C@H](NS(=O)(=O)/C=C/c1ccccc1)c1[nH]nc(-c2ccc(F)cc2)c1-c1ccncc1`, the IC50 came out at 590 nM.

`CC(=O)OC(C)(C)C(=O)NCc1[nH]nc(-c2ccc(F)cc2)c1-c1ccncc1` yielded an IC50 of 540 nM. On the same count and under the same terms, for `Fc1ccc(-c2n[nH]cc2-c2ccnc(NCc3cccc(F)c3)c2)cc1` the value was 141 nM. In turn, `C[C@H](NS(=O)(=O)c1cccc2ccccc12)c1[nH]nc(-c2ccc(F)cc2)c1-c1ccncc1` registered an inhibition of 80%. On the same count and under the same terms, for `C[C@H](NC(=O)NCCc1ccccc1)c1[nH]nc(-c2ccc(F)cc2)c1-c1ccncc1` the value was 36%.

The compound `O=C(NCCc1[nH]nc(-c2ccc(F)cc2)c1-c1ccncc1)c1ccc(C(F)(F)F)cc1` displayed an inhibition of 30%. Compound `Cc1[nH]nc(-c2ccc(Cl)cc2)c1-c1ccncc1` showed an IC50 of 201 nM.

The compound `C[C@H](NC(=O)c1ccc(C(F)(F)F)cc1)c1[nH]nc(-c2ccc(F)cc2)c1-c1ccncc1` displayed an inhibition of 29%. On to `C[C@@H](NC(N)=O)c1[nH]nc(-c2ccc(F)cc2)c1-c1ccncc1`, for which the IC50 came out at 1510 nM. On to `O=C(NCc1[nH]nc(-c2ccc(F)cc2)c1-c1ccncc1)NC(=O)c1ccccc1`, for which the inhibition came out at 28%. The compound `Cc1noc(C)c1S(=O)(=O)N[C@@H](C)c1[nH]nc(-c2ccc(F)cc2)c1-c1ccncc1` yielded an inhibition of 74%.

`C[C@H](NC(=O)c1c(Cl)cccc1Cl)c1[nH]nc(-c2ccc(F)cc2)c1-c1ccncc1` gave an inhibition of 35%.

`CN(C)CCCNc1n[nH]c(-c2ccc(F)cc2)c1-c1ccncc1` showed an IC50 of 270 nM. `C[C@@H](NC(=O)c1ccccc1Cl)c1[nH]nc(-c2ccc(F)cc2)c1-c1ccncc1` showed an inhibition of 87%. Still for that read-out and setting: under `CS(=O)(=O)N[C@H](Cc1ccccc1)c1[nH]nc(-c2ccc(F)cc2)c1-c1ccncc1` stands 17%; under `COc1ccc(NC(=O)N[C@@H](C)c2[nH]nc(-c3ccc(F)cc3)c2-c2ccncc2)c(OC)c1`, 21%; under `O=S(=O)(NCc1[nH]nc(-c2ccc(F)cc2)c1-c1ccncc1)c1ccc(F)cc1Cl`, 40%. Compound `O=S(=O)(c1ccccc1F)N1CCC(c2[nH]nc(-c3ccc(F)cc3)c2-c2ccncc2)CC1` came in with an IC50 of 5000 nM.

Regarding `O=C(NCc1[nH]nc(-c2ccc(F)cc2)c1-c1ccncc1)c1cccc(OC(F)(F)F)c1`, the inhibition was 22%.

`C[C@@H](NC(=O)c1ccc(F)cc1F)c1[nH]nc(-c2ccc(F)cc2)c1-c1ccncc1` registered an inhibition of 77%. The same measure, in the same setting: for `O=S(=O)(NCc1[nH]nc(-c2ccc(F)cc2)c1-c1ccncc1)c1ccc(-c2ccccn2)s1` the value was 63%.

In turn, `CC(=O)NCc1[nH]nc(-c2ccc(F)cc2)c1-c1ccncc1` returned an IC50 of 190 nM.

Take `CCNC(=O)NCc1[nH]nc(-c2ccc(F)cc2)c1-c1ccncc1`: the inhibition came out at 28%.

Take `Cn1cc(-c2ccncc2)c(-c2cccc(C(F)(F)F)c2)n1`: the IC50 was 402 nM. In the case of `CN(C(=O)NCCc1[nH]nc(-c2ccc(F)cc2)c1-c1ccncc1)c1ccccc1`, the inhibition came to 41%. The same measure, in the same setting: under `C[C@H](NS(=O)(=O)c1ccc(C#N)cc1)c1[nH]nc(-c2ccc(F)cc2)c1-c1ccncc1` stands 95%. Still for that read-out and setting: for `Cc1noc(C)c1C(=O)NCc1[nH]nc(-c2ccc(F)cc2)c1-c1ccncc1` the value was 28%. As to `COc1ccc(CC(=O)N[C@H](Cc2ccccc2)c2[nH]nc(-c3ccc(F)cc3)c2-c2ccncc2)cc1OC`, the IC50 is greater than 1000 nM and the inhibition was 21%. Take `O=C(NCc1[nH]nc(-c2ccc(F)cc2)c1-c1ccncc1)Nc1ccc(C(F)(F)F)cc1`: the inhibition came out at 10%. As to `CCCc1n[nH]c(-c2cccc(C)c2)c1-c1ccncc1`, the IC50 came out at 29 nM. That is a double-digit nanomolar value. The compound `C[C@H](NC(=O)c1cccc(Cl)c1Cl)c1[nH]nc(-c2ccc(F)cc2)c1-c1ccncc1` showed an inhibition of 17%. As for `Cn1cc(-c2ccncc2)c(-c2cccc(F)c2)n1`, the IC50 was 462 nM. The compound `O=C(NCc1[nH]nc(-c2ccc(F)cc2)c1-c1ccncc1)c1ccc(Cl)cc1Cl` gave an inhibition of 20%. The same measure, in the same setting: under `C[C@@H](NS(=O)(=O)c1cccc(Cl)c1)c1[nH]nc(-c2ccc(F)cc2)c1-c1ccncc1` stands 97%. Regarding `Cn1cc(-c2ccnc(F)c2)c(-c2ccc(F)cc2)n1`, the IC50 was found to be 456 nM. As to `CC(C)NC(=O)N[C@@H](C)c1[nH]nc(-c2ccc(F)cc2)c1-c1ccncc1`, the inhibition is 47%. On the same count and under the same terms, for `C[C@H](NC(=O)c1ccc(F)cc1C(F)(F)F)c1[nH]nc(-c2ccc(F)cc2)c1-c1ccncc1` the value was 58%; for `O=C(N[C@H](Cc1ccccc1)c1[nH]nc(-c2ccc(F)cc2)c1-c1ccncc1)c1cccnc1`, 38%.

The inhibition is the drop in the measured response relative to a control, in per cent. A low value points to a weak effect. Usually IC50 stands for the midpoint of a concentration-inhibition curve. Low values mean greater potency in that assay, high ones weaker potency in that assay.
